# Legend:
# [1] = molecular target: T1, rhesus brush border membrane vesicles (Macaca mulatta, UniProt A0MJA5); assay: biochemical
# T1 sequence (A0MJA5 1-1332): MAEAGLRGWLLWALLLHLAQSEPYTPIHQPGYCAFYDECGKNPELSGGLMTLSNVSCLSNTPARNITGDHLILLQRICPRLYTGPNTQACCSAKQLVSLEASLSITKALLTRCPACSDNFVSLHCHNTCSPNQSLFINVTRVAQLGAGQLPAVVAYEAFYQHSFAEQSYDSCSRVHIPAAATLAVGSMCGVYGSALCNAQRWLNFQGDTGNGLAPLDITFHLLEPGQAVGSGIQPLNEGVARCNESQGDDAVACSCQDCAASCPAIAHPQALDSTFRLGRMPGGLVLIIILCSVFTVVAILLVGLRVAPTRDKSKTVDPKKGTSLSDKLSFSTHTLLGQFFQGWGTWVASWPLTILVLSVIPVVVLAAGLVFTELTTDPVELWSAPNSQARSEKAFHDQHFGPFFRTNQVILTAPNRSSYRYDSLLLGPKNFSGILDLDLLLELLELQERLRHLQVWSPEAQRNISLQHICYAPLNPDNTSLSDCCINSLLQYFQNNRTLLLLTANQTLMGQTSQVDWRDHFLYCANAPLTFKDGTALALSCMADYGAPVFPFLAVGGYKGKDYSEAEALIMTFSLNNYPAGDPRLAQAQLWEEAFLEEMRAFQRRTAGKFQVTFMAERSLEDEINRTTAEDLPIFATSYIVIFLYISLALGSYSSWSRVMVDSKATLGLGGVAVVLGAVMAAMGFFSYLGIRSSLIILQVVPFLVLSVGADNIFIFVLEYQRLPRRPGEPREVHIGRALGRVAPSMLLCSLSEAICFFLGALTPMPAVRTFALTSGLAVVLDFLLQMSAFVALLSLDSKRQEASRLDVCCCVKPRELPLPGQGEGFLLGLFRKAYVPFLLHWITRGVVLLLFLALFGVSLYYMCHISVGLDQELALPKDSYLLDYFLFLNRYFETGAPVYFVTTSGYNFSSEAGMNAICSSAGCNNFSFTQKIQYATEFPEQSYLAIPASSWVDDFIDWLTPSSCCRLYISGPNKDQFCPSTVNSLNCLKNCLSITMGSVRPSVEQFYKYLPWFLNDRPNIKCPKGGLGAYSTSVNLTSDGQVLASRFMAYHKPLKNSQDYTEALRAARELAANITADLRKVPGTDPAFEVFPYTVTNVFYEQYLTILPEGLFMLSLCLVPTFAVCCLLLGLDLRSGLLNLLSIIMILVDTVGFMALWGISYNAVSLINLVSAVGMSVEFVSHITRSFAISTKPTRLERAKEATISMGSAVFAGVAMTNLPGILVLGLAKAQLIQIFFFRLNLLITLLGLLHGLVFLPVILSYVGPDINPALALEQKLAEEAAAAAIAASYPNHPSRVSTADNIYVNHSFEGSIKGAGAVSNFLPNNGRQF
# Procedure: The intestines from freshly sacrificed animals were cut into segments, perfused with ice-cold saline buffer (Buffer A: 26 mM NaHCO3, 0.96 mM NaH2PO4, 5 mM HEPES, 5.5 mM glucose, 117 mM NaCl, 5.4 mM KCl, pH=7.4), placed on cold glass plates, opened longitudinally, and the mucosa scraped with glass microscope slips. This mucosa could be used fresh or frozen with identical results. To prepare the membranes, the mucosal scrapings were resuspended in 20 volumes of cold buffer consisting of 300 mM D-mannitol, 5 mM EGTA, 12 mM Tris, pH 7.4 with HCl, and containing 0.1 mM PMSF and a 1% dilution of a protease inhibitor cocktail (set 1, Calbiochem). They were homogenized using a Polytron at medium speed on ice until inspection with a microscope indicated complete cell lysis. Then, solid MgCl2 was added slowly with stirring to a final concentration of 10 mM, and the solution was kept stirring on ice for 15 min. Cellular debris was removed by centrifugation for 15 min at 3,000 g, and the membranes were recovered by centrifugation for 60 min at 48,000 g. The membranes were further rinsed by re-suspension in a buffer containing 50 mM D-mannitol, 5 mM EGTA, and 2 mM Tris at pH 7.40, and centrifugation for 60 min at 48,000 g. The final pellet was resuspended in 120 mM NaCl and 20 mM Tris at pH 7.40 to a concentration of ˜10-20 mg protein/ml, aliquoted, frozen in liquid nitrogen, and stored at −80 C. The activity was stable indefinitely and could be freeze-thawed with minimal loss of activity.
# Binding assay. Assays were conducted in 12×75 mm glass test tubes and total volume 20-100 ul. In general, frozen membranes were diluted in buffer A or buffer A containing 0.03% taurocholate and 0.05% digitonin to a final concentration of 0.02 to 5 mg/ml. […] Competing ligands were likewise added as DMSO solutions to give a total 2-10% organic solvent content. […] At least 2 components of buffer A, the bicarbonate and phosphate salts, were later found to be inconsequential and were routinely omitted.
# Bound ligand was quantified by single-tube vacuum filtration using GF/C glass fiber filters. […] Filtration was accomplished by adding 2.5 ml of ice cold buffer (120 mM NaCl, 0.1% sodium cholate, and 20 mM MES at pH 6.70) to the assay tube, pouring the mixture through the filter, and then rinsing the tube and filter twice more with another 2×2.5 ml buffer. The filters were counted in 7 ml vials using Packard DM liquid scintillation fluid.
# Data analysis. Data from saturation experiments were subjected to a Scatchard analysis, and linear regression was performed to yield the equilibrium dissociation constant (Kd) and maximum receptor concentration (Bmax). […] Data from competition experiments were analyzed and IC50 values determined from Hill plots of the binding data.
# [2] = molecular target: T2, human NPC1L1 (Homo sapiens, UniProt Q9UHC9, G1187D/M616T/T1073A); assay: ^35S-2 competition binding, human NPC1L1 transfected CHO cells; set-up: expressed in transfected cells; host or cells: CHO cells (pCDNA3, XbaI/NotI fragment); settings: for Kd: 5 nM ^35S-2, 2 hours at 37° C., read-out: affinity (Kd) for human recombinant NPC1L1
# T2 sequence (Q9UHC9 22-1332 isoform Q9UHC9-2 M616T/T1046A/G1160D limits assumed): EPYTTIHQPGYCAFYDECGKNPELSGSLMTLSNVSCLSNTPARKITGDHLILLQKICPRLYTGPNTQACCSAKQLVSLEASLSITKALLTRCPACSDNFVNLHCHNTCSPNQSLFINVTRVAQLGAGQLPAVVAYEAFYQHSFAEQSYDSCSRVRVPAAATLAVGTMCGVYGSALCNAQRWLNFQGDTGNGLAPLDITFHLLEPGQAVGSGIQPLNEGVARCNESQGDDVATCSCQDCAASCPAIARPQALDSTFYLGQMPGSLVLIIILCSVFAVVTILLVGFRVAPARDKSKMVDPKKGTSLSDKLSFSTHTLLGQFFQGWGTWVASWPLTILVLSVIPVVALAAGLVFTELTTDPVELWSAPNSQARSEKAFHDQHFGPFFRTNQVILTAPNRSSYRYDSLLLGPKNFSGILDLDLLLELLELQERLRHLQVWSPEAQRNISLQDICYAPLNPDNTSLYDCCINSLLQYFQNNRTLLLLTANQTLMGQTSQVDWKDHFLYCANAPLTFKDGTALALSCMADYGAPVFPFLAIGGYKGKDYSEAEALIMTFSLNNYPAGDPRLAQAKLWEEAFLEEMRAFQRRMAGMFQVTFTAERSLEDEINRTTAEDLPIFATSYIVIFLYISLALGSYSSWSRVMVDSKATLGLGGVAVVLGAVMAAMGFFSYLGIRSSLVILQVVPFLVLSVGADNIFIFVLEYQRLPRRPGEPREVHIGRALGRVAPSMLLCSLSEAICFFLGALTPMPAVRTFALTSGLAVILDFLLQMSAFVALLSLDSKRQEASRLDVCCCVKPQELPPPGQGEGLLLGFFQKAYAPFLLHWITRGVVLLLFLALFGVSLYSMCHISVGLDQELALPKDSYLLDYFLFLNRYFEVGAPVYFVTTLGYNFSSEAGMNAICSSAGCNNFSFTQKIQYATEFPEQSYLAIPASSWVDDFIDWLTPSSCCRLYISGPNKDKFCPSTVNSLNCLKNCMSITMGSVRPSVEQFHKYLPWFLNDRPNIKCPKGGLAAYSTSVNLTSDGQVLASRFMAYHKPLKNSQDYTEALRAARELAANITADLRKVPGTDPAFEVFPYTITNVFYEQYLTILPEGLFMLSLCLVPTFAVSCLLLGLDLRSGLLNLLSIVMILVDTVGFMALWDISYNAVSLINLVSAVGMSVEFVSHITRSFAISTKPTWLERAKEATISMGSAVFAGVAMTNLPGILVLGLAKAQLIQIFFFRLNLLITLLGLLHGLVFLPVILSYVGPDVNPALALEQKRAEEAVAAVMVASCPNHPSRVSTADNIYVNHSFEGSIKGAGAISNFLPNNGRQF
# Procedure: Human NPC1L1 transfected CHO cells (˜600,000 cells/assay) were incubated with 5 nM ^35S-2 (˜1 million dpm/assay) in buffer A for 2 hours at 37° C. in the absence or presence of increasing concentrations of EZE-glucuronide (compound 1), compounds 2, 3, 5, 6, or 8.
potency relative to ezetimibe glucuronide (1) ([2]; human recombinant NPC1L1),SMILES,Ki [1] [nM],Kd [2] [nM]
–,"O=C(O)[C@H]1O[C@@H](Oc2ccc([C@@H]3[C@@H](CC[C@H](O)c4ccc(F)cc4)C(=O)N3c3ccc(F)cc3)cc2)[C@H](O)[C@@H](O)[C@@H]1O [Compound 1, Ezetimibe glucuronide]",39,907
approximately 50 fold,"CS(=O)(=O)NCC#Cc1ccc(N2C(=O)[C@H](CC[C@H](O)c3ccc(F)cc3)[C@H]2c2ccc(O[C@@H]3O[C@H](C(=O)O)[C@@H](O)[C@H](O)[C@H]3O)cc2)cc1 [Compound 2, 4-[(2S,3R)-3-[(3S)-3 (4-fluorophenyl)-3-hydroxypropyl]-1-(4-{3-[(methylsulfonyl)amino]prop-1-yn-1-yl}phenyl)-4-oxoazetidin-2-yl]phenyl β-D-glucopyranosiduronic acid]",38,21
